How the values were obtained:
human IKKβ = molecular target: T1, human IKKβ (Homo sapiens, UniProt O14920); assay: IKKβ kinase inhibition assay (phosphorylation of IκBα substrate, 33P-ATP); format: biochemical; details: flag-tagged human IKKβ 0.9 μg/ml, GST-IκBα (1-54) 53 μg/ml, 250 nM ATP, 1 hour at 25° C.
T1 construct: FLAG (N)
T1 sequence (O14920 1-756): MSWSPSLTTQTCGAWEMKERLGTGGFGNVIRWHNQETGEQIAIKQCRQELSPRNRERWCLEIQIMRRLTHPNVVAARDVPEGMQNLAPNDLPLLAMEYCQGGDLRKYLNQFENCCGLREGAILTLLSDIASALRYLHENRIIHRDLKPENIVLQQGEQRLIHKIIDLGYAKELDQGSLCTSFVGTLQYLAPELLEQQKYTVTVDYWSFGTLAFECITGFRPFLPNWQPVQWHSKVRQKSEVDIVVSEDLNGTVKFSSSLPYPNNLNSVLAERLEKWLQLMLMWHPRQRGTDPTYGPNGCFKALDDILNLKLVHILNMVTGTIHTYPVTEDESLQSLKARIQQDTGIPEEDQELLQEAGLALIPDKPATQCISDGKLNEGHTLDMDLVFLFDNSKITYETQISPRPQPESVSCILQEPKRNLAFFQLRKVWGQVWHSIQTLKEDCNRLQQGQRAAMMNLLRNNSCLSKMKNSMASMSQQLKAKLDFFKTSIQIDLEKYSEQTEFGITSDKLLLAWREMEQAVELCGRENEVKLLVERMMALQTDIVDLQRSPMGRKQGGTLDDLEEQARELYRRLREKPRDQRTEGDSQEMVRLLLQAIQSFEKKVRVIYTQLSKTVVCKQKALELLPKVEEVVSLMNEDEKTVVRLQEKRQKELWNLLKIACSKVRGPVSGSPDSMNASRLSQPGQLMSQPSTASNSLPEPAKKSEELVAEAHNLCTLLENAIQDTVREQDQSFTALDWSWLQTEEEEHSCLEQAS
Experimental: (§1) The inhibition of IKKα and IKKβ by the compounds of the present invention was determined with the following assay that measures the phosphorylation of the IκBα substrate by the respective kinases. The enzymes used in the assay were N-terminally flag-tagged versions of the human IKKβ or IKKα and the substrate was a GST fusion protein with IκBα (amino acids 1-54).
(§2) The reaction mixtures (60 μl) contained 20 mM HEPES pH 7.5, 10 mM MgCl2, 2 mM MnCl2, 100 mM NaCl, 100 μM Na3VO4, 20 mM β-glycerophosphate, 1 mM DTT, 2% DMSO, 250 nM ATP, 0.4 nM [^33P]ATP (specific activity, 3000 Ci/mmol), IκBα substrate, IKK enzyme and test compound. The reaction mixtures contained either 3.6 μg/ml IKKα and 245 μg/ml IκBα or 0.9 μg/ml IKKβ and 53 μg/ml IκBα.
(§3) Reactions were initiated by adding a solution of IκBα substrate and ATP to polypropylene plates containing IKK enzyme that was pre-incubated for 5 minutes with test compound. Then the reaction mixtures were incubated for 1 hour at 25° C., placed on ice and quenched by the addition of 150 μl 10% trichloroacetic acid and 5% disodium pyrophosphate. After mixing, the entire contents of the quenched reaction mixtures were transferred to a pre-wetted Packard UniFilter filtration plate, aspirated and washed 6 times with 250 μl of ddH2O using the Packard Filtermate Harvester. Filtration plates were then air dried, supplemented with 40 μl of Microscint 20 scintillation fluid and the ^33P-labeled reaction products were quantified using the Packard TopCount scintillation counter.
(§4) Compounds were tested in three-fold serial dilutions and inhibitor concentrations to achieve 50% inhibition of enzyme activity (i.e., IC50) were derived from dose-reponse curves using SAS software (SAS Institute, Cary N.C.). A non-linear regression analysis based on the Hill equation was applied to the percent inhibition versus concentration data. In all cases, compound concentrations were verified by HPLC.

human IKKα = molecular target: T2, human IKKα (Homo sapiens, UniProt O15111); assay: IKKα kinase inhibition assay (phosphorylation of IκBα substrate, 33P-ATP); format: biochemical; details: flag-tagged human IKKα 3.6 μg/ml, GST-IκBα (1-54) 245 μg/ml, 250 nM ATP, 1 hour at 25° C.
T2 construct: FLAG (N)
T2 sequence (O15111 1-745): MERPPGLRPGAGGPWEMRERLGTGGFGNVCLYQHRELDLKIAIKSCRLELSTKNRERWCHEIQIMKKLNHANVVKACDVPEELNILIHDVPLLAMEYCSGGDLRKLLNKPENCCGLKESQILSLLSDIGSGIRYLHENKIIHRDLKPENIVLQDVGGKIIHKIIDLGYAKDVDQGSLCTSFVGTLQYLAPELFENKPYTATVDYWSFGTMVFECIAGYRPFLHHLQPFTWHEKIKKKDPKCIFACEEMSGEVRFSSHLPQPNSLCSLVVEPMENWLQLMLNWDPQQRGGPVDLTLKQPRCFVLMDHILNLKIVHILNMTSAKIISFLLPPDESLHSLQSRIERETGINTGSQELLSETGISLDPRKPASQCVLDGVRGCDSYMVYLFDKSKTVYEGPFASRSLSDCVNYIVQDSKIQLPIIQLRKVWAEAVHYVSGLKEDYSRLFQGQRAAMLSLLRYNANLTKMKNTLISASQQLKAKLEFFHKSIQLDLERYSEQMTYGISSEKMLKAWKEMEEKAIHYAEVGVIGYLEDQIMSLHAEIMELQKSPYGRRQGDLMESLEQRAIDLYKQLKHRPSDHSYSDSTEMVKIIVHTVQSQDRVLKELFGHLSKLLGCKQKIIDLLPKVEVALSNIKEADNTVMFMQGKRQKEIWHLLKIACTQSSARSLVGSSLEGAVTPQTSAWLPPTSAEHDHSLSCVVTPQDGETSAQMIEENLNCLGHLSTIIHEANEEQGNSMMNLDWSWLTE
Experimental: as §1, §2, §3, §4

## CNC1CCN(c2cc(C(F)F)c3c(N)c(C(N)=O)sc3n2)CC1 [3-Amino-4-difluoromethyl-6-(4-methylamino-piperidin-1-yl)-thieno[2,3-b]pyridine-2-carboxylic acid amide]
Human IKKβ
  IC50: < 1 µM
Human IKKα
  IC50: ≤ 10 µM

## CCCc1cc(N2CCC(NCc3nnn[nH]3)CC2)nc2sc(C(N)=O)c(N)c12 [3-Amino-4-propyl-6-{4-[(1H-tetrazol-5-ylmethyl)-amino]-piperidin-1-yl}-thieno[2,3-b] pyridine-2-carboxylic acid amide]
Human IKKβ
  IC50: < 1 µM
Human IKKα
  IC50: ≤ 10 µM

## NC(=O)c1sc2nc(N3CCC(N)CC3)cc(/C=C/c3ccncc3)c2c1N [3-Amino-6-(4-amino-piperidin-1-yl)-4-((E)-2-pyridin-4-yl-vinyl)-thieno[2,3-b]pyridine-2-carboxylic acid amide]
Human IKKβ
  IC50: < 1 µM
Human IKKα
  IC50: ≤ 10 µM

## NC(=O)c1sc2nc(N3CCC(N)CC3)cc(C3CC3)c2c1N [3-Amino-6-(4-amino-piperidin-1-yl)-4-cyclopropyl-thieno[2,3-b] pyridine-2-carboxylic acid amide]
Human IKKβ
  IC50: < 1 µM
Human IKKα
  IC50: ≤ 10 µM

## CCc1cc(N2CCC(N)CC2)nc2sc(C(N)=O)c(N)c12 [3-Amino-6-(4-amino-piperidin-1-yl)-4-ethyl-thieno[2,3-b] pyridine-2-carboxylic acid amide]
Human IKKβ
  IC50: < 1 µM
Human IKKα
  IC50: ≤ 10 µM

## CC(C)c1cc(N2CCC(N)CC2)nc2sc(C(N)=O)c(N)c12 [3-Amino-6-(4-amino-piperidin-1-yl)-4-isopropyl-thieno[2,3-b] pyridine-2-carboxylic acid amide]
Human IKKβ
  IC50: < 1 µM
Human IKKα
  IC50: ≤ 10 µM

## Cc1cc(N2CCC(N)CC2)nc2sc(C(N)=O)c(N)c12 [3-Amino-6-(4-amino-piperidin-1-yl)-4-methyl-thieno[2,3-b] pyridine-2-carboxylic acid amide]
Human IKKβ
  IC50: < 1 µM
Human IKKα
  IC50: ≤ 10 µM

## CNC(=O)c1cc(N2CCC(N)CC2)nc2sc(C(N)=O)c(N)c12 [3-Amino-6-(4-amino-piperidin-1-yl)-thieno[2,3-b]pyridine-2,4-dicarboxylic acid 2-amide 4-methylamide]
Human IKKβ
  IC50: < 1 µM
Human IKKα
  IC50: ≤ 10 µM

## NC(=O)c1sc2nc(N3CCC(N)CC3)cc(C(=O)Nc3ccccc3)c2c1N [3-Amino-6-(4-amino-piperidin-1-yl)-thieno[2,3-b]pyridine-2,4-dicarboxylic acid 2-amide 4-phenylamide]
Human IKKβ
  IC50: < 1 µM
Human IKKα
  IC50: ≤ 10 µM

## NC(=O)c1sc2nc(N3CCC(N)CC3)cc(C(=O)Nc3cccnc3)c2c1N [3-Amino-6-(4-amino-piperidin-1-yl)-thieno[2,3-b]pyridine-2,4-dicarboxylic acid 2-amide 4-pyridin-3-ylamide]
Human IKKβ
  IC50: < 1 µM
Human IKKα
  IC50: ≤ 10 µM

## NC(=O)c1sc2nc(N3CCC(N)CC3)cc(C(=O)Nc3ccncc3)c2c1N [3-Amino-6-(4-amino-piperidin-1-yl)-thieno[2,3-b]pyridine-2,4-dicarboxylic acid 2-amide 4-pyridin-4-ylamide]
Human IKKβ
  IC50: < 1 µM
Human IKKα
  IC50: ≤ 10 µM

## NC(=O)c1sc2nc(N3CCC(N)CC3)cc(C(N)=O)c2c1N [3-Amino-6-(4-amino-piperidin-1-yl)-thieno[2,3-b]pyridine-2,4-dicarboxylic acid diamide]
Human IKKβ
  IC50: < 1 µM
Human IKKα
  IC50: ≤ 10 µM

## CCCc1cc(N2CCC(NC3CC3)CC2)nc2sc(C(N)=O)c(N)c12 [3-Amino-6-(4-cyclopropylamino-piperidin-1-yl)-4-propyl-thieno[2,3-b] pyridine-2-carboxylic acid amide]
Human IKKβ
  IC50: < 1 µM
Human IKKα
  IC50: ≤ 10 µM

## CNC1CCN(c2cc(OCC(F)(F)F)c3c(N)c(C(N)=O)sc3n2)CC1 [3-Amino-6-(4-methylamino-piperidin-1-yl)-4-(2,2,2-trifluoro-ethoxy)-thieno[2,3-b]pyridine-2-carboxylic acid amide]
Human IKKβ
  IC50: < 1 µM
Human IKKα
  IC50: ≤ 10 µM

## CCCc1cc(N2CC[C@@H](N)C2)nc2sc(C(N)=O)c(N)c12 [3-Amino-6-((R)-3-amino-pyrrolidin-1-yl)-4-propyl-thieno[2,3-b] pyridine-2-carboxylic acid amide]
Human IKKα
  IC50: ≤ 10 µM

## CCCc1cc(N2CCC(NCC(O)c3ccc(C(=O)NCc4cccnc4)cc3)CC2)nc2sc(C(N)=O)c(N)c12 (stereo not shown) [3-Amino-6-[4-(2-hydroxy-2-{4-[(pyridin-3-ylmethyl)-carbamoyl]-phenyl}-ethylamino)-piperidin-1-yl]-4-propyl-thieno[2,3-b] pyridine-2-carboxylic acid amide]
Human IKKα
  IC50: ≤ 10 µM

## Cc1cc(-c2ccc([N+](=O)[O-])cc2)c2c(N)c(C(N)=O)sc2n1 [3-Amino-6-methyl-4-(4-nitro-phenyl)-thieno[2,3-b]pyridine-2-carboxylic acid amide]
Human IKKα
  IC50: ≤ 10 µM

## Cc1cc(/C=C/c2ccccc2)c2c(N)c(C(N)=O)sc2n1 [3-Amino-6-methyl-4-((E)-styryl)-thieno[2,3-b]pyridine-2-carboxylic acid amide]
Human IKKα
  IC50: ≤ 10 µM

## NC(=O)c1sc2nc(N3CCC(NCC(O)c4ccc(F)c(F)c4)CC3)cc(C(F)(F)F)c2c1N (stereo not shown) [3-Amino-6-{4-[2-(3,4-difluoro-phenyl)-2-hydroxy-ethylamino]-piperidin-1-yl}-4-trifluoromethyl-thieno[2,3-b]pyridine-2-carboxylic acid amide]
Human IKKα
  IC50: ≤ 10 µM

## NC(=O)c1sc2nc(N3CCC(NCC(O)c4ccc(C(=O)NCc5ccccc5)cc4)CC3)cc(C(F)(F)F)c2c1N (stereo not shown) [3-Amino-6-{4-[2-(4-benzylcarbamoyl-phenyl)-2-hydroxy-ethylamino]-piperidin-1-yl}-4-trifluoromethyl-thieno[2,3-b]pyridine-2-carboxylic acid amide]
Human IKKα
  IC50: ≤ 10 µM

## CCCc1cc(N2CCC(NCC(O)c3ccc(NS(C)(=O)=O)cc3)CC2)nc2sc(C(N)=O)c(N)c12 (stereo not shown) [3-Amino-6-{4-[2-hydroxy-2-(4-methanesulfonylamino-phenyl)-ethylamino]-piperidin-1-yl}-4-propyl-thieno[2,3-b] pyridine-2-carboxylic acid amide]
Human IKKα
  IC50: ≤ 10 µM

## CCCc1cc(N2CCNCC2)nc2sc(C(N)=O)c(N)c12 [3-amino-6-piperazin-1-yl-4-propyl-thieno[2,3-b]pyridine-2-carboxylic acid amide]
Human IKKα
  IC50: ≤ 10 µM

## NC(=O)c1sc2nc(N3CCC(N)CC3)cc(C(=O)NCCCN3CCOCC3)c2c1N [33-Amino-6-(4-amino-piperidin-1-yl)-thieno[2,3-b]pyridine-2,4-dicarboxylic acid 2-amide 4-[(3-morpholin-4-yl-propyl)-amide]]
Human IKKα
  IC50: ≤ 10 µM
